Assay results published in patent US20080275058A1, “N-Substituted-1H-Quinoline-2,4-Diones, Preparation Method Thereof, And Pharmaceutical Composition Containing The Same” (KOREA RESEARCH INSTITUTE OF CHEMICAL TECHNOLOGY, priority 2005, published 2008).
Read-outs that look alike come from different tables or passages of the source.

Legend:
5-HT1a = molecular target: T1, 5-HT1a (Homo sapiens, UniProt P08908); assay: Radioligand binding, 5-HT1a ([3H]8-OH-DPAT); settings: Table 4; [3H]8-OH-DPAT 0.5 nM; read-out: Binding affinity, IC50 (nM) 5-HT1a
T1 construct: purchased Euroscreen/BioSignal Packard Inc
T1 sequence (P08908 1-422): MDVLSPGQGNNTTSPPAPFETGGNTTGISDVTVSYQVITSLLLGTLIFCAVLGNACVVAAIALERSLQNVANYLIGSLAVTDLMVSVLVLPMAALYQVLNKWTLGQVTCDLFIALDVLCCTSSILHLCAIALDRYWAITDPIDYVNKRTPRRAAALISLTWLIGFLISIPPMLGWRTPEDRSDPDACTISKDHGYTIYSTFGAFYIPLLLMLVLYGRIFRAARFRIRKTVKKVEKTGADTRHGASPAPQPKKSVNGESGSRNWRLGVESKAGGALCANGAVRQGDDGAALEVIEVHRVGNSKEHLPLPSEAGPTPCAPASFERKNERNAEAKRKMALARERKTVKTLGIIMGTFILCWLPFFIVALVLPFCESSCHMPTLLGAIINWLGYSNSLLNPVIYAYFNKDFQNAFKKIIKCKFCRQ
Outline: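 Receptor-expressing membranes were obtained commercially, and the displacement of radiolabel was then carried out as the supplier's method specifies.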

hD3 = molecular target: T2, hD3 (Homo sapiens, UniProt P35462); assay: Radioligand binding, dopamine D3 ([3H]spiperone); settings: Table 4; [3H]spiperone 1 nM; read-out: Binding affinity, IC50 (nM) D3
T2 construct: purchased BioSignal Packard Inc., Montreal, Canada
T2 sequence (P35462 whole entry): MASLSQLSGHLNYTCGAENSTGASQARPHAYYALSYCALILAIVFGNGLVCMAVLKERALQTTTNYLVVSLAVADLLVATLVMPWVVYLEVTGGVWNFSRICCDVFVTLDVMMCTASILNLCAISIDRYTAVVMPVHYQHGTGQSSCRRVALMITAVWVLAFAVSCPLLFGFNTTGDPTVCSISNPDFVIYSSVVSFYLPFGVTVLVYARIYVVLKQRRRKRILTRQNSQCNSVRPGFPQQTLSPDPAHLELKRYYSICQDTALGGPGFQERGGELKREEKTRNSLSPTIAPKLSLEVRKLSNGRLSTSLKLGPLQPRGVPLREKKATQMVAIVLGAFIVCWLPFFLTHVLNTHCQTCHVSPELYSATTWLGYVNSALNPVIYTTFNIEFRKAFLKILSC
Outline: (§1)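 Membrane competition binding with [3H]spiperone (1 nM) for hD2L and hD3, or [3H]YM-09151-2 (0.06 nM) for hD4.2, each in receptor-specific Tris-HCl pH 7.4 buffer containing Mg2+/EDTA (D3 and D4 also with K+, Ca2+; D3 with 120 mM NaCl). Compounds were tested at 7-8 concentrations in duplicate, and IC50 was derived by nonlinear regression across three assays.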

[1] = molecular target: T3, Human serotonin 5-HT6 receptor (Homo sapiens, UniProt P50406); assay: [3H]LSD binding assay on cloned 5-HT6 receptor membranes
T3 construct: made in house; host or cells: insect Sf21 cells (baculovirus vector BacPAK8)
T3 sequence (P50406 whole entry): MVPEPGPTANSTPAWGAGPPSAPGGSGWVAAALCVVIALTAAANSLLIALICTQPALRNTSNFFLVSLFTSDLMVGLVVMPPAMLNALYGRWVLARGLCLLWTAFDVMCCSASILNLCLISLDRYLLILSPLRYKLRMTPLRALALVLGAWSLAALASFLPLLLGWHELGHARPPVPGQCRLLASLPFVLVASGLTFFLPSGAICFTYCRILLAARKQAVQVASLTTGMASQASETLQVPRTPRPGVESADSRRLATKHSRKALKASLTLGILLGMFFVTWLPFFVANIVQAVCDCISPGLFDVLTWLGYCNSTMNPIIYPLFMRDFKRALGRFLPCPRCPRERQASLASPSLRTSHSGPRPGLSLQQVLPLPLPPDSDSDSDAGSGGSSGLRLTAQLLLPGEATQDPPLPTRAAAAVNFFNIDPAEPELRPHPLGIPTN

5-HT2a = molecular target: T4, 5-HT2a (Homo sapiens, UniProt P28223); assay: Radioligand binding, 5-HT2a ([3H]Ketanserin); settings: Table 4; [3H]Ketanserin 1 nM; read-out: Binding affinity, IC50 (nM) 5-HT2a
T4 construct: purchased Euroscreen/BioSignal Packard Inc
T4 sequence (P28223 whole entry): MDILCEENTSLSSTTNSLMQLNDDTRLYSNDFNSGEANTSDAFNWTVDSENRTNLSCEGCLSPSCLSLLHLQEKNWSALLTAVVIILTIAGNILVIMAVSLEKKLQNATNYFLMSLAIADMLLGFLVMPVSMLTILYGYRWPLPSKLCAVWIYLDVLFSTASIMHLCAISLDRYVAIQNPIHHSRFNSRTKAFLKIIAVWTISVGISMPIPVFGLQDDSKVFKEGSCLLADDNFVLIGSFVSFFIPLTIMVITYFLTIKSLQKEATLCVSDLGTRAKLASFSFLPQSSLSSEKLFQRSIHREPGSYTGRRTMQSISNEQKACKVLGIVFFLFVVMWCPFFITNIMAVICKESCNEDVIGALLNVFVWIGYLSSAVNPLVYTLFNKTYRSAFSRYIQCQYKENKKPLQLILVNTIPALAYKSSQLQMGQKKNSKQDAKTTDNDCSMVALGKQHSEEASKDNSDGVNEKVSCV

hD2L = molecular target: T5, hD2L (Homo sapiens, UniProt P14416); assay: Radioligand binding, dopamine D2 ([3H]spiperone); settings: Table 4; [3H]spiperone 1 nM; read-out: Binding affinity, IC50 (nM) D2
T5 construct: purchased BioSignal Packard Inc., Montreal, Canada
T5 sequence (P14416 whole entry): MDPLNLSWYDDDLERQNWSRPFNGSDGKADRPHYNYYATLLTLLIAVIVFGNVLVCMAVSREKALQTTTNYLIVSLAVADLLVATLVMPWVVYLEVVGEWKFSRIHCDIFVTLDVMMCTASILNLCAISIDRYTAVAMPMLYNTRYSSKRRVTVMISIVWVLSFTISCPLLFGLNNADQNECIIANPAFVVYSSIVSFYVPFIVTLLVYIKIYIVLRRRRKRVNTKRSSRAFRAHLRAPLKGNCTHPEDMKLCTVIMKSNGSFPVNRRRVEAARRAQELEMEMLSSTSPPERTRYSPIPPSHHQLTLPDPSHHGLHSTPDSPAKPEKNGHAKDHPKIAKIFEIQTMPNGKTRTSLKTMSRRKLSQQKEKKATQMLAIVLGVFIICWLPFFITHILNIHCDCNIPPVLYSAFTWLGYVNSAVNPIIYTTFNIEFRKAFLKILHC
Outline: as §1

5-HT2c = molecular target: T6, 5-HT2c (Homo sapiens, UniProt P28335); assay: Radioligand binding, 5-HT2c ([3H]Mesulergine); settings: Table 4; [3H]Mesulergine 1 nM; read-out: Binding affinity, IC50 (nM) 5-HT2c
T6 construct: purchased Euroscreen/BioSignal Packard Inc
T6 sequence (P28335 33-458): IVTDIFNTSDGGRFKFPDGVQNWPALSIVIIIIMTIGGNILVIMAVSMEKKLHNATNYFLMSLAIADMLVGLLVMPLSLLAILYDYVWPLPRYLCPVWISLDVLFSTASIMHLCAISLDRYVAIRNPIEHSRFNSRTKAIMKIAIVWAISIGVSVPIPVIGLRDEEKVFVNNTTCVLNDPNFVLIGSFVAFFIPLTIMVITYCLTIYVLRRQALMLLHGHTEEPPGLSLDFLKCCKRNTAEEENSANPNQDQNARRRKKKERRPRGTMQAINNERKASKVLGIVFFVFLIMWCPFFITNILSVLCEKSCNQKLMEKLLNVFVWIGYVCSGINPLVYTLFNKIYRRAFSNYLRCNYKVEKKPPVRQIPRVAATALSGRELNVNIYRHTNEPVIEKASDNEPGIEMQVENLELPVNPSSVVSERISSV

hD4.2 receptor = molecular target: T7, hD4.2 receptor (Homo sapiens, UniProt P21917, DEL265-296); assay: Radioligand binding, dopamine D4 ([3H]YM-09151-2); settings: Table 4; [3H]YM-09151-2 0.06 nM; read-out: Binding affinity, IC50 (nM) D4
T7 construct: purchased BioSignal Packard Inc., Montreal, Canada
T7 sequence (P21917 with tags, fused parts or gaps DEL265-296): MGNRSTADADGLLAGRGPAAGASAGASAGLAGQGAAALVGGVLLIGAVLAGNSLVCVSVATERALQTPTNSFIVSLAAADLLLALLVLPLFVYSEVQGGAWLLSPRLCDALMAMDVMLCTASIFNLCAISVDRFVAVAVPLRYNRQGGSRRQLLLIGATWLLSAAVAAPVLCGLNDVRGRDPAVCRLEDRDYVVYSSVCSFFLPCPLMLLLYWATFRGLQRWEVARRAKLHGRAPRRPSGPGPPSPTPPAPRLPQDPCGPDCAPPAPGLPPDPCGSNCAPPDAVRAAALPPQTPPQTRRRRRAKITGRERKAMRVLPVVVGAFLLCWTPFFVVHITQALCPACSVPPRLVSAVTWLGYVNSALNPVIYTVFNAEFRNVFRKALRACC
Outline: as §1

D1 = D1 (Homo sapiens, UniProt P21728); assay: Radioligand binding, dopamine D1; settings: Table 4; read-out: Binding affinity, IC50 (nM) D1
D1, sequence (P21728 whole entry): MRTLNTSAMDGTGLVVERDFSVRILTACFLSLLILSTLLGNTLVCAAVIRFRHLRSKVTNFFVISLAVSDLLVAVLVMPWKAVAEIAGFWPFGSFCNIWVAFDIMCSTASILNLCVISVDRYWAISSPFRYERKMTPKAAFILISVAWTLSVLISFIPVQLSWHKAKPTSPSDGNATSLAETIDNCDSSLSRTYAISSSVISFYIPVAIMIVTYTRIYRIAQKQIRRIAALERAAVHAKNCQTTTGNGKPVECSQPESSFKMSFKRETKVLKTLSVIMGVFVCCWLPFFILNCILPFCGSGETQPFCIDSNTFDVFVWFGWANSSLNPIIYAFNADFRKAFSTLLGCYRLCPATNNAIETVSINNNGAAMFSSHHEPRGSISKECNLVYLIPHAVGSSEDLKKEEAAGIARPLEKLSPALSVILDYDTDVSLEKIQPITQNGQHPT

5-HT7 = molecular target: T8, 5-HT7 (Homo sapiens, UniProt P34969); assay: Radioligand binding, 5-HT7 ([3H]LSD); settings: Table 4; [3H]LSD 3 nM; read-out: Binding affinity, IC50 (nM) 5-HT7
T8 construct: purchased Euroscreen/BioSignal Packard Inc
T8 sequence (P34969 whole entry): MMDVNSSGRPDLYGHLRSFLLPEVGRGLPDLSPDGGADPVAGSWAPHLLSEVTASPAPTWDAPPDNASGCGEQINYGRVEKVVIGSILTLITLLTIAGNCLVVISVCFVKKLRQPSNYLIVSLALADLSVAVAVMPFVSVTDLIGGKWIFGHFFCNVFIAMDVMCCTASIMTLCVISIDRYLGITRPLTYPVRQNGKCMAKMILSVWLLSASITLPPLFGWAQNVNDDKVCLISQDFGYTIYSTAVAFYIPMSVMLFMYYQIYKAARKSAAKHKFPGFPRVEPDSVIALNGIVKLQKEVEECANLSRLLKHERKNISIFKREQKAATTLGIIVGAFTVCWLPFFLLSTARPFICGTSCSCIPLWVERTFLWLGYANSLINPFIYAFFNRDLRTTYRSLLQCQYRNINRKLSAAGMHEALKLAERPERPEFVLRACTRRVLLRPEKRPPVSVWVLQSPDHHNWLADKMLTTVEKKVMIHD

[2] = Table 2, 1.87 nM [3H]LSD, 37 C, 60 min, read-out: IC50 (nM), binding affinity to the 5-HT6 receptor
[3] = Table 4, read-out: Binding affinity, IC50 (nM) 5-HT6

Structure (SMILES) | IC50 (5-HT1a) | IC50 (hD3) | IC50 [1, 2] | IC50 [1, 3] | IC50 (5-HT2a) | IC50 (hD2L) | IC50 (5-HT2c) | IC50 (hD4.2 receptor) | melting point | IC50 (D1) | IC50 (5-HT7) | binding affinity at 5-HT6 receptor labeled by [3H]LSD, in words ([1]; comment on Table 2)
CC1(c2ccc(O)cc2)C(=O)c2c(N3CCNCC3)cc(Cl)cc2N(Cc2ccc3ccccc3n2)C1=O (stereo not shown) [Example 45, 7-Chloro-3-(4-hydroxy-phenyl)-3-methyl-5-piperazin-1-yl-1-quinolin-2-ylmethyl-1H-quinoline-2,4-dione] | > 10000 nM | 9160 nM | 11.4 nM | 16.4 nM | > 10000 nM | 7680 nM | > 1000 nM | 8510 nM | 278 to 279 °C | 8410 nM | 9450 nM | –
CC1(c2ccc([N+](=O)[O-])cc2)C(=O)c2c(N3CCNCC3)cc(Cl)cc2N(Cc2ccccc2)C1=O (stereo not shown) [Example 15, 1-Benzyl-7-chloro-3-methyl-3-(4-nitro-phenyl)-5-piperazin-1-yl-1H-quinoline-2,4-dione] | 6350 nM | 9740 nM | 12.1 nM | 15.2 nM | 8120 nM | 6660 nM | 9950 nM | 9460 nM | 145 to 146 °C | 5810 nM | 9510 nM | –
COc1ccc(C2(C)C(=O)c3c(N4CCNCC4)cc(Cl)cc3N(Cc3nc4ccccc4[nH]3)C2=O)cc1 (stereo not shown) [Example 43, 1-(1H-Benzoimidazol-2-ylmethyl)-7-chloro-3-(4-methoxy-phenyl)-3-methyl-5-piperazin-1-yl-1H-quinoline-2,4-dione] | 8020 nM | 9440 nM | 137 nM | 19.3 nM | 5800 nM | 9010 nM | 7890 nM | 9470 nM | 178 to 179 °C | 6350 nM | 9520 nM | –
COc1ccc(CN2C(=O)C(C)(c3ccc(OC)cc3)C(=O)c3c(N4CCNCC4)cc(Cl)cc32)cc1 (stereo not shown) [Example 31, 7-Chloro-1-(4-methoxy-benzyl)-3-(4-methoxy-phenyl)-3-methyl-5-piperazin-1-yl-1H-quinoline-2,4-dione] | 6950 nM | 8950 nM | 26.5 nM | 21.3 nM | 8340 nM | 6430 nM | 7950 nM | 8710 nM | 182 to 183 °C | 7550 nM | 8440 nM | –
CC1(c2ccc(O)cc2)C(=O)c2c(N3CCNCC3)cc(Cl)cc2N(Cc2ccc(O)cc2)C1=O (stereo not shown) [Example 32, 7-Chloro-1-(4-hydroxy-benzyl)-3-(4-hydroxy-phenyl)-3-methyl-5-piperazin-1-yl-1H-quinoline-2,4-dione] | 6580 nM | 9110 nM | 1.7 nM | 15.2 nM | 7450 nM | 6960 nM | 7890 nM | 9450 nM | 241 to 242 °C | 9010 nM | 8310 nM | significant affinities
COc1ccc(C2(C)C(=O)c3c(N4CCNCC4)cc(Cl)cc3N(Cc3cccc([N+](=O)[O-])c3)C2=O)cc1 (stereo not shown) [Example 23, 7-Chloro-3-(4-methoxy-phenyl)-3-methyl-1-(3-nitro-benzyl)-5-piperazin-1-yl-1H quinoline-2,4-dione] | 9010 nM | 9650 nM | 2.7 nM | 16.7 nM | 6480 nM | 6930 nM | 8400 nM | 9090 nM | 153 to 154 °C | 7640 nM | 8450 nM | –
CCN(CC)c1ccc(C2(C)C(=O)c3c(N4CCN(C)CC4)cc(Cl)cc3N(Cc3ccccc3)C2=O)cc1 (stereo not shown) [Example 5, 1-Benzyl-7-chloro-3-(4-diethylamino-phenyl)-3-methyl-5-(4-methyl-piperazin-1-yl)-1H-quinoline-2,4-dione] | 6450 nM | 7080 nM | 37.8 nM | 16.8 nM | 7540 nM | 7050 nM | 4660 nM | 8750 nM | 204 to 206 °C | 7700 nM | 7620 nM | –
CCN1C(=O)C(C)(c2ccc(OC)cc2)C(=O)c2c(N3CCNCC3)cc(Cl)cc21 (stereo not shown) [Example 46, 7-Chloro-1-ethyl-3-(4-methoxy-phenyl)-3-methyl-5-piperazin-1-yl-1H-quinoline-2,4-dione] | 6700 nM | 9410 nM | 49.1 nM | 15.8 nM | 6360 nM | 8570 nM | 9110 nM | 9570 nM | 127 to 129 °C | 7890 nM | 7950 nM | –
COc1ccc(C2(C)C(=O)c3c(N4CCNCC4)cc(Cl)cc3N(Cc3ccc4ccccc4n3)C2=O)cc1 (stereo not shown) [Example 44, 7-Chloro-3-(4-methoxy-phenyl)-3-methyl-5-piperazin-1-yl-1-quinolin-2-ylmethyl-1H-quinoline-2,4-dione] | 7530 nM | 9840 nM | 6.9 nM | 19 nM | 6100 nM | > 1000 nM | 7690 nM | 9270 nM | 200 to 201 °C | 7650 nM | 7650 nM | –
